Results published in PMC10804683, “Identification of the pyridoxal 5′‐phosphate allosteric site in human pyridox(am)ine 5′‐phosphate oxidase” (Protein Science : A Publication of the Protein Society, 2024).
Where a chain is given by its changes, count along the chain named. “And” between values parts separate entries of the source, which are not always exact repeats. Equal values may be shown once.

Columns and labels:
[1] = molecular target: T1, human PNPO F48A/E50L/R258L variant (Homo sapiens, UniProt Q9NVS9, E50L/F48A/R258L); test: PLP binding by DSF, triple variant; details: 50 mM Na-HEPES pH 7.6, 2 μM enzyme
T1 construct: a main form corresponding to the entire protein; made in house; host or cells: E. coli BL21(DE3)
T1 sequence (Q9NVS9 1-261 F48A/E50L/R258L): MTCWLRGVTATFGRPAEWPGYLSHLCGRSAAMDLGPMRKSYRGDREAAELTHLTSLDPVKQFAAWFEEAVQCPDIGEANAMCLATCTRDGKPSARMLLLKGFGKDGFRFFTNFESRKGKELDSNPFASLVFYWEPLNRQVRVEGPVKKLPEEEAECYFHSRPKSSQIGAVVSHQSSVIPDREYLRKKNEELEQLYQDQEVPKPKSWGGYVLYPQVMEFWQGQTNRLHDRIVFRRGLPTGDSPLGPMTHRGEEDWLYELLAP
Description: (§1) PLP binding to PNPO can be detected and quantitatively measured using differential scanning fluorimetry (DSF) and also by measuring FMN fluorescence changes. We had previously attributed DSF changes to PLP binding at the active site, while FMN fluorescence changes were attributed to PLP binding at the allosteric site (Barile et al., [2019], [2020]). Previous experiments carried out with the PNPO R161C variant, affecting a residue that is essential for substrate binding and catalysis (and therefore also for PLP binding at the active site), confirms that DSF measurements only report PLP binding at the active site (Barile et al., [2021]; Table 1). […] We expected to observe no FMN fluorescence changes upon titration of the variants with PLP. However, this was not the case, and the dissociation constant values obtained by observing the FMN fluorescence emission were only up to threefold larger in the variants with respect to wild type PNPO (Figure 3). […] To check the second possibility, we measured intrinsic fluorescence changes of wild type and variant apo‐forms (i.e., without FMN) upon PLP titration. […]
FIGURE 2 DSF measurements with F48A (a), F48A/E50L/R258L (b), F48A/E50L/H248N/R258L (c), and 1‐31del PNPO variants in the presence of different PLP concentrations. Upper panels: Fluorescence change is expressed as fractional variation as a function of temperature. […]

[2] = molecular target: T2, human PNPO F48A/E50L/H248N/R258L variant (holo-enzyme) (Homo sapiens, UniProt Q9NVS9, E50L/F48A/H248N/R258L); test: PLP binding by FMN fluorescence changes, holo quadruple variant; details: 100 nM enzyme, read-out: PLP binding KD^FLUO
T2 construct: a main form corresponding to the entire protein; made in house; host or cells: E. coli BL21(DE3)
T2 sequence (Q9NVS9 1-261 F48A/E50L/H248N/R258L): T1 sequence (Q9NVS9 1-261 F48A/E50L/R258L) with H248N
Description: as §1
Analyses of PLP binding, based on FMN fluorescence increase observed upon binding of PLP to PNPO, were performed as described in Barile et al. ([2020]). […] Emission spectra were recorded from […], with excitation and emission slits set at 3 and 5 nm, respectively. […]

[3] = molecular target: human PNPO wild type (holo-enzyme); parameters: method as in Barile et al. ([2020]); details: FMN fluorescence changes, ref Barile et al. ([2020]), read-out: PLP binding KD^FLUO; cited from earlier work
[4] = molecular target: T3, human PNPO 1-31del variant (Homo sapiens, UniProt Q9NVS9); test: PLP binding by DSF, 1-31del; details: 50 mM Na-HEPES pH 7.6, 2 μM enzyme
T3 construct: a main form corresponding to the entire protein; made in house; host or cells: E. coli BL21(DE3)
T3 sequence (Q9NVS9 32-261): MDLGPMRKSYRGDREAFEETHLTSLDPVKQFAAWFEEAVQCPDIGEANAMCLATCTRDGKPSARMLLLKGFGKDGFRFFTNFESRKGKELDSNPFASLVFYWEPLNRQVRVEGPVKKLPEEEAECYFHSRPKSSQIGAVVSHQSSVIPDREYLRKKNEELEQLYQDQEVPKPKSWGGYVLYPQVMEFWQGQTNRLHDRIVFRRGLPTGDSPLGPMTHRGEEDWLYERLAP
Experimental: FIGURE 2 DSF measurements with F48A (a), F48A/E50L/R258L (b), F48A/E50L/H248N/R258L (c), and 1‐31del PNPO variants in the presence of different PLP concentrations. Upper panels: Fluorescence change is expressed as fractional variation as a function of temperature. The experiment was carried out using 2 μM enzyme and different PLP concentrations (0, 0.78, 1.56, 3.13, 6.25, 12.5, 25, and 50 μM). Thermal denaturation data are fitted to the Boltzmann equation to obtain melting temperatures. Each curve is the average of three independent experiments with standard error bars. Lower panels: Saturation curves obtained by plotting the melting temperatures as a function of the PLP concentration. […] (μM)' of each lower plot.

Cc1ncc(COP(=O)(O)O)c(C=O)c1O [PLP, pyridoxal 5′‐phosphate]
Kd [1]: 6.28 µM and 6.3 µM
Kd [2]: 2.85 ± 0.25 µM
Kd [3]: 0.95 ± 0.01 µM
Kd [4]: 3 ± 0.3 µM
